In assay [1] the test system is peroxide content on glutamate-insulted rat cortical cells. The assay is described as follows: Cellular peroxide content in glutamate-injured cortical neurons. It counts as cell-based.
Assay [2] relates to NO content released from glutamate-insulted rat cortical cells. The assay can be described thus: Measurement of nitric oxide (nitrite in culture broth, Griess reagent). The format is cell-based. As to conditions: for Nitrite post-treatment / Nitrite pre-treatment: control 70.5, glutamate-treated 165.9; for Nitrite post-treatment / Nitrite: post-treatment; for Nitrite: control 75.5, glutamate-treated 145.7.
Procedure: The content of nitrite isolated into culture broth from first cultured cortical cells was assayed by using Griess reagent by Dawson's method(Dawson V L, Brahbhatt H P, Mong J A and Dawson T M (1994) Expression of inducible nitric oxide synthase causes delayed neurotoxicity in primary neuronal-glial cortical cultures. Neuropharmacology 33: 1425-1430).

Assay [3] has as its system glutamate-insulted rat cortical cells. The assay can be described thus: Neuroprotection against glutamate-induced neurotoxicity, cell viability by MTT assay in primary cultured cortical cells. Also on record: neuroprotective activity (in words): dose or concentration left out as unconfirmed. The format is cell-based. On the procedure: Primary cultures of mixed cortical cells containing both neuron and glia were prepared from fetal rats as described previously (Kim Y C, Kim S R, Markelonis G J and Oh T H (1998) Ginsenosides Rb1 and Rg3 protect cultured rat cortical cells from glutamate-induced neurodegeneration. J. Neurosci. Res. 53: 426-432).
The cortical cells were plated onto collagen-coated dishes at a density of 1×10^6 cells/ml. The cultured cells were grown in DMEM supplemented with 10% heat-inactivated fetal calf serum, 1 mM sodium pyruvate, 100 IU/ml pecicillin and 100 μg/ml streptomycin at 37° C. in a humidified atmosphere of 95% air/5% CO2. cultures were allowed to mature for 2 weeks before being used for experiments.
Total extract of S. chinensis, fraction and isolated materials were dissolved in DMSO(within final culture concentration, 0.1%) and diluted with distilled water and by passing the solution through Milliporemembrane(0.22 μm, Millex-GV, USA) to make sterile state. The solution was cultured by differentiating the concentration and dosed to neuron cells.
To culture broth of the cortical cells during being cultured, MTT(5 mg/ml) was added by 10% of the culture broth. The broth was cultured for more 3 hours. The formed formazan was dissolved by DMSO and was assayed absorption at 540 nm((Mosmann T (1983) Rapid colorimetric assay for cellular growth and survival: Application to proliferation and cytotoxicity assays. J. Immuno. Methods 65: 55-61)
The neuroprotective activity of these two aristolactam alkaloids against glutamate-induced toxicity was initially evaluated by a timed exposure to alkaloids before or after excitotoxic challenge. Some cultures were pretreated with alkaloids for one hr before a brief exposure (30 min) to glutamate, washed and maintained in DMEM for 24 hr in the absence of alkaloids (pre-treatment) (Table 3). Also, cultures were first exposed to glutamate for 30 min, washed and maintained in DMEM for 24 hr in the presence of alkaloids (post-treatment) (Table 4).
Cortical cells directly isolated from rat fetal were cultured for 14 days. The samples to be tested were treated at different concentrations to cultured cells. After one hour, neurotoxicity was induced by treating 100 μM of glutamate. After 24 hours, the survival cell rate were measured by MTT assay to determine neuroprotective activity of the samples.
Control is the value for primary cultures of rat cortical cells. Control value for MTT was 1.03±0.08 optical density (OD). Glutamate-treated is the value for primary cultures of rat cortical cells exposed to glutamate for 30 min. Glutamate-treated value for MTT was 0.58±0.02 OD.
Viability is calculated as 100×(OD of sample treated−OD of Glutamate-treated)/(OD of control−OD of Glutamate-treated).

The subject of assay [4] is [Ca2+]i in glutamate-insulted rat cortical cells. The assay is described as follows: Measurement of Ca2+ concentration in cells (Fura-2 AM). It counts as cell-based. As to conditions: for [Ca2+]i: pre-treatment, control 75.5, glutamate-treated 425.4.
Assay [5] concerns glutamate-insulted rat cortical cells. As to conditions: previously patented neuroprotectant, comparison; cited from earlier work.
The test system of assay [6] is SOD. The assay is described as follows: Effect on activity of antioxidant enzyme SOD. As to conditions: data not shown. It counts as cell-based, rat.
Assay [7] deals with catalase. The assay is described as follows: Effect on activity of antioxidant enzyme catalase. It counts as cell-based, rat. As to conditions: data not shown.
Assay [8] relates to GSH-px. The assay is described as follows: Effect on activity of antioxidant enzyme GSH-px. The format is cell-based, rat. As to conditions: data not shown.
The mark [9] stands for this setting: both pre- and post-treatment paradigms.

Here are results for four molecules from patent US20030045564A1, “Saururus chinensis extract for prevention and treatment of neurodegenerative disease” (priority 2000, published 2003).

saurolactam-3-O-(E)-p-methoxycinnamate: the “cellular peroxide level (in words)” value in assay [1] is “reduced”. In addition, in assay [2] (setting [9]), the “block of NO synthesis (in words)” value is “significantly block”. For the same molecule, the results for the Nitrite post-treatment in assay [2] (0.1 μM), in assay [2] (1.0 μM) and in assay [2] (10.0 μM) were 143.6 ± 5.7 nM, 97.5 ± 26.3 nM and 118.1 ± 2.1 nM, respectively. Moreover, the Nitrite pre-treatment in assay [2] (0.1 μM) is 125.0 ± 6.8 nM; in assay [2] (1.0 μM), 74.8 ± 6.5 nM; in assay [2] (10.0 μM), 71.4 ± 2.1 nM. Moreover, the “Neuroprotection (% protection against glutamate-induced neurotoxicity)” value in assay [3] (Table 6, pre-treatment, 0.1 μM) is 29.8 ± 8.2 %; in assay [3] (Table 6, pre-treatment, 1.0 μM), 67.2 ± 9.6 %; in assay [3] (Table 6, pre-treatment, 10.0 μM) it was 80.6 ± 9.5 %; in assay [3] (Table 7, post-treatment, 0.1 μM), 62.1 ± 1.8 %; in assay [3] (Table 7, post-treatment, 1.0 μM), 70.3 ± 3.2 %; in assay [3] (Table 7, post-treatment, 10.0 μM) it was 48.2 ± 1.5 %. Besides, the “neuroprotective activity on glutamate-induced neurotoxicity (in words)” value in assay [3] (setting [9]) was “significant neuroprotective activity”. Moreover, the “block of increase of intracellular Ca2+ induced by excess glutamate (in words)” value in assay [4] was “successfully block”. In addition, the results for the “[Ca2+]i” value in assay [4] (0.1 μM), in assay [4] (1.0 μM) and in assay [4] (10.0 μM) were 233.3 ± 14.9 nM, 145.8 ± 26.3 nM and 96.1 ± 4.1 nM, respectively.
As to `N=C(NCCC[C@H](N)C(=O)O)N[N+](=O)[O-]` [N^ω-nitro-L-arginine, reference compound], the values for the Nitrite in assay [2] (1.0 μM), in assay [2] (10.0 μM) and in assay [2] (100.0 μM) were 103.9 ± 3.5 nM, 88.5 ± 4.1 nM and 109.7 ± 1.9 nM, respectively.
Turning to `COc1ccc(/C=C/C(=O)O)cc1` [E-p-MCA, (E)-p-methoxycinnamic acid], the “protective activity by treatment paradigm (in words)” value in assay [5] is on record as “significant protective activity only in pre-treatment paradigm”.
For the molecule `COc1cc2c3c(cc4ccccc4c3c1OC)NC2=O` [aristolactam BII, 10-amino-3,4-methoxy-3-hydroxy-phenanthrene-1-carboxylic acid lactam], the results for the Nitrite in assay [2] (0.1 μM), in assay [2] (1.0 μM) and in assay [2] (10.0 μM) were 87.0 ± 0.8 nM, 86.8 ± 2.2 nM and 103.2 ± 1.2 nM, respectively. Moreover, in assay [2] (versus glutamate alone), the “NO content in cultures treated with glutamate plus compound (in words)” value is “increased only slightly”. Also, the “Neuroprotection (% protection against glutamate-induced neurotoxicity)” value in assay [3] (post-treatment (right after 30 min glutamate insult), 0.1 μM) worked out at 58.5 ± 5.8 %; in assay [3] (post-treatment (right after 30 min glutamate insult), 1.0 μM), 68.4 ± 3.5 %; in assay [3] (post-treatment (right after 30 min glutamate insult), 10.0 μM), 47.8 ± 2.9 %; in assay [3] (pre-treatment (1 hr prior to glutamate insult), 0.1 μM), 0.0 ± 7.8%; in assay [3] (pre-treatment (1 hr prior to glutamate insult), 1.0 μM), 0.0 ± 3.2%; in assay [3] (pre-treatment (1 hr prior to glutamate insult), 10.0 μM), 32.2 ± 0.8 %. Besides, the “Neuroprotection (% protection against glutamate-induced neurotoxicity)” value in assay [3] (throughout treatment, 0.1 μM) is on record as “no effect”; in assay [3] (throughout treatment, 1.0 μM) it was 60.8 ± 2.1 %; in assay [3] (throughout treatment, 10.0 μM), 52.2 ± 3.2 %. The “protection from glutamate-induced neurotoxicity (in words)” value in assay [3] (pre-treatment paradigm) is recorded as “did not significantly protect”. For the same molecule, the “neuroprotective activity (in words)” value in assay [3] (throughout treatment paradigm) is “significant neuroprotective activity”. Besides, in assay [6], the “protective effect on activity of SOD (in words)” value is on record as “no significant protective effects”. For the same molecule, the “protective effect on activity of catalase (in words)” value in assay [7] is on record as “no significant protective effects”. The “protective effect on activity of GSH-px (in words)” value in assay [8] was “no significant protective effects”.
